Values of other authors, collected in US20050232985A1, “Ciprofloxacin hcl” (priority 2002, published 2005).
Structures can show the parent of a compound that is named as a salt.

Legend:
[1] = system: Excherichia Coli, Klebsiella SPP., and other Enterobacter SPP., Bacillus—negative
[2] = system: Pseudomonas aerugenosa, golden yellow Staphylococcus and Streptococcus pneumoniae

O=C(O)c1cn(C2CC2)c2cc(N3CCNCC3)c(F)cc2c1=O [Ciprofloxacin Hydrochloride, I-cyclopropyl-6-fluoro-1,4-dihydro-4-oxo-7-(I-piperazinyl)-3-quinolinecarboxylic acid]
antibacterial action versus Penicillin kinds of antibiotic (Streptococcus SPP.): less than Penicillin kinds of antibiotic
antibacterial activity [1]: wide range antibacterial activity
antibacterial action versus Norfloxacin and Peifloxacin [2]: better than other known derivatives
